Measured values reported in US7829533B2, “Cyclosporin analog formulations” (Isotechnika Inc., priority 2001, dated 2010).

Assay: Toxicokinetic study in the rabbit model (serum creatinine, hematology, organ examination)
Protocol: On Days 1 and 7, blood samples were collected prior to drug administration and at 0.5, 1, 2, 4, 8, 12, 18, and 24 hours post-dose to generate a pharmacokinetic profile. Other evaluated parameters included clinical observations, body weight, food consumption, hematology, clinical chemistry, gross pathology, and histopathological examination of selected tissues/organs.

For `C=C/C=C/C[C@@H](C)[C@@H](O)[C@H]1C(=O)N[C@@H](CC)C(=O)N(C)CC(=O)N(C)[C@@H](CC(C)C)C(=O)N[C@@H](C(C)C)C(=O)N(C)[C@@H](CC(C)C)C(=O)N[C@@H](C)C(=O)N[C@H](C)C(=O)N(C)[C@@H](CC(C)C)C(=O)N(C)[C@@H](CC(C)C)C(=O)N(C)[C@@H](C(C)C)C(=O)N1C` [ISATX247], the “Examination of organs: spermatogenesis” value (male rabbits, 15 mg/kg) was “decrease in spermatogenesis”, the Examination of organs (rabbits, 5 mg/kg) was “no significant abnormalities” and the Examination of organs (rabbits, 10 mg/kg) was “no significant abnormalities”. For the same compound, the “Interstitial fibrosis in the kidneys” value (rabbits, 10 mg/kg cyclosporine A, 5 or 10 mg/kg ISATx247) was “no evidence of interstitial fibrosis”, the “Increase in serum creatinine levels” value (rabbits, 15 mg/kg/day) was “did not result in any significant increase” and the “Changes in hematological parameters” value (rabbits, 30-day study) was “No significant changes”.
